Measurements from US20240408085A1, “COMPOUND FOR DEGRADATION OF BCL-2 FAMILY PROTEINS AND MEDICAL APPLICATION THEREOF” (XIZANG HAISCO PHARMACEUTICAL CO., LTD., priority 2021, published 2024).
Like-named read-outs stand apart in the source and are kept apart here.

Assays:
platelet (PLT) = experiment: Effect on platelet (PLT) after single intravenous injection; format: in vivo, SD rats; parameters: key to Effect on PLT (↓ decrease): — represents that no significant change was observed; details: for platelet toxicity relative to the control compound: rats
Description: Experimental animal: 78 SD rats, with an equal number of males and females, male (♂): 290-380 g, female (♀): 220-290 g, 8-10 weeks old, purchased from Zhejiang Vital River Laboratory Animal Technology Co., Ltd.
Experimental protocol: a clear solution was formulated using a vehicle ([…]). The animals were dosed via tail vein a single time (administration volume: 20 mL/kg; bolus injection period: about 4 minutes; recovery period: 7 days).

BCL-xL proteins = biological target: T1, BCL-xL proteins (Homo sapiens, UniProt Q07817); experiment: BCL-xL degradation activity in MOLT-4 cells (western blot, 16 h); format: cell-based
T1 construct: degradation effect on the BCL-xL proteins in MOLT-4 cells; host or cells: MOLT-4
T1 sequence (Q07817 whole entry): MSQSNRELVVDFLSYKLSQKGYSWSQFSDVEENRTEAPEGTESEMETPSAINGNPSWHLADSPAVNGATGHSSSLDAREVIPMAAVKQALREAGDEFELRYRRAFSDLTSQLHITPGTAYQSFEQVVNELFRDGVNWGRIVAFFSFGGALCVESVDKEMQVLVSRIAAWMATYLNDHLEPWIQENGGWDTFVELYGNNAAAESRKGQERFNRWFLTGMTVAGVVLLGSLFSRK
Description: MOLT-4 cells are acute lymphoblastic leukemia cell lines in humans. The cells were purchased from ATCC. Culture conditions: RPMI-1640+10% FBS+1% penicillin-streptomycin solution. The cells were cultured in a 37° C., 5% CO2 incubator. The cells were plated in a 12-well plate, with 2×10^5 cells/well. After plating, compounds at different concentrations were added and cultured in a 37° C., 5% CO2 incubator for 16 h. After the completion of culture, the cells were harvested and RIPA lysis buffer (beyotime, Cat. P0013B) was added. The cells were lysed on ice for 15 minutes and centrifuged at 12000 rpm at 4° C. for 10 minutes. The supernatant protein samples were collected and the protein was quantified by using the BCA kit (Beyotime, Cat. P0009). Then the protein was diluted to 0.8 mg/mL. The expressions of BCL-xL (CST, Cat. 2764S), BCL-2 (CST, Cat. 15071S) and the internal reference β-actin (CST, Cat. 3700S) were detected using a fully automated western blot quantitative analyzer (Proteinsimple). The expression level of BCL-xL or BCL-2 relative to the internal reference was calculated by using Compass software, and the DC50 value was calculated by using GraphPad Prism 8.0 software according to formula (1), wherein the Proteinadministration denoted the relative expression level of BCL-xL or BCL-2 in administration groups at different doses, and the Proteinvehicle denoted the relative expression level of BCL-xL or BCL-2 in the vehicle control group.
Protein %=Proteinadministration/Proteinvehicle×100% formula (1)

MOLT-4 cells = experiment: Cell proliferation activity in MOLT-4 cells (72 h, cell viability luminescence); format: cell-based, human; details: read-out: IC50 for the inhibition of MOLT-4 cell proliferation
Summary of the method: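 Human acute lymphoblastic leukemia cells were seeded at 5×10^3 cells/well in RPMI-1640 with 10% FBS. They were treated with serially varied compound concentrations for 72 h at 37° C., 5% CO2. A luminescent viability reagent was used for read-out. IC50 was derived relative to vehicle control; maximum inhibition was the inhibition rate at the highest concentration.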

[1] = Pharmacokinetic test in monkeys (intravenous); format: in vivo; details: male, cynomolgus monkey, i.v. 2 mg/kg, plasma
Description: Experimental animals: male cynomolgus monkeys, 3-5 kg, 3-6 years old, 2 monkeys/compound. Purchased from Suzhou Xishan Biotechnology Inc.
Experimental method: on the day of the test, 2 monkeys were randomly grouped according to their body weights. The animals were fasted with water available for 14 to 18 h one day before the administration of a test compound, and were fed 4 hours after the administration.
Before and after the administration, 1.0 mL of blood samples were drawn from the limb veins and placed in an EDTAK2 centrifuge tube. Centrifugation was carried out at 5000 rpm at 4° C. for 10 min, and the plasma was collected. Blood collection time points for the intravenous group were: 0, 5 min, 15 min, 30 min, 1 h, 2 h, 4 h, 6 h, 8 h, 10 h, 12 h, 24 h, and 48 h. Before analysis and detection, all samples were stored at −80° C., and a quantitative analysis of samples was performed using LC-MS/MS.

MOLT-4 xenograft tumors = experiment: Growth inhibition experiment in MOLT-4 xenograft tumor models in mice; format: in vivo; details: two-way ANOVA and then Dunnett's test, FIG. 1
Description: MOLT-4 cells are acute lymphoblastic leukemia cell lines in humans. The cells were purchased from ATCC and cultured in RPMI-1640+10% FBS+1% o penicillin-streptomycin solution in a 37° C., 5% CO2 incubator. When the cells were in the exponential growth phase, the cells were harvested and counted. An equal volume of matrigel was added. Female SCID Beige mice (4-6 weeks old, 14-16 g, Beijing Vital River Laboratory Animal Technology Co., Ltd.) were inoculated subcutaneously in the right flank with the cells (200 μL, containing 1×10^7 MOLT-4 cells and 50% matrigel). When the tumor volume reached 150-200 mm^3, the mice were randomly grouped for administration according to the tumor volume and body weight of the mice. Three administration dosages were provided: 5 mpk, 15 mpk and 50 mpk. The compounds were injected intraperitoneally (ip) weekly (qw). The mice in all the experimental groups (10 mice in each group) were continuously administered for 4 weeks.
After inoculation, the body weights of the mice were measured three times a week and the long (a) and short (b) diameters of the tumors were measured. The tumor volume was calculated according to the formula: V=ab^2/2. At day 28 after the administration, the experiment was terminated.

[2] = SD rats ♀, 6 mg/kg single i.v., 4 h
[3] = SD rats ♀, 6 mg/kg single i.v., D2
[4] = SD rats ♀, 20 mg/kg single i.v., 4 h
[5] = SD rats ♀, 20 mg/kg single i.v., D2
[6] = SD rats ♀, 60 mg/kg single i.v., D8
[7] = SD rats ♂, 6 mg/kg single i.v., 4 h
[8] = SD rats ♂, 6 mg/kg single i.v., D2
[9] = SD rats ♂, 20 mg/kg single i.v., 4 h
[10] = SD rats ♂, 20 mg/kg single i.v., D2
[11] = SD rats ♂, 60 mg/kg single i.v., D8

Row | Structure (SMILES) | Effect on PLT (↓ decrease) (platelet (PLT); [2]) | Effect on PLT (↓ decrease) (platelet (PLT); [3]) | Effect on PLT (↓ decrease) (platelet (PLT); [4]) | Effect on PLT (↓ decrease) (platelet (PLT); [5]) | Effect on PLT (↓ decrease) (platelet (PLT); [6]) | Effect on PLT (↓ decrease) (platelet (PLT); [7]) | Effect on PLT (↓ decrease) (platelet (PLT); [8]) | Effect on PLT (↓ decrease) (platelet (PLT); [9]) | Effect on PLT (↓ decrease) (platelet (PLT); [10]) | Effect on PLT (↓ decrease) (platelet (PLT); [11]) | DC50 (BCL-xL proteins) [nM] | IC50 (MOLT-4 cells; Homo sapiens) [nM] | IC50 (MOLT-4 cells) [nM] | platelet toxicity relative to the control compound (platelet (PLT); 6 mg/kg and 20 mg/kg single i.v., 4 h and D2) | platelet toxicity relative to the control compound (platelet (PLT); 60 mg/kg single i.v., D8) | AUC(0-t) [1] [ng·h/mL] | half-life [1] [h] | growth inhibition on MOLT-4 xenograft tumor models, P versus the vehicle control group (MOLT-4 xenograft tumors)
1 | Cc1ncsc1-c1ccc([C@H](C)NC(=O)[C@@H]2C[C@@H](O)CN2C(=O)[C@@H](NC(=O)CCCCCC(=O)N2CCN(CC[C@H](CSc3ccccc3)Nc3ccc(S(=O)(=O)NC(=O)c4ccc(N5CCN(CC6=C(c7ccc(Cl)cc7)CCC(C)(C)C6)CC5)cc4)cc3S(=O)(=O)C(F)(F)F)CC2)C(C)(C)C)cc1 [Control compound, DT2216, reference compound] | ↓24% | ↓78% | ↓89% | ↓96% | ↓87% | ↓26% | ↓69% | ↓81% | ↓91% | ↓73% | > 20 |  |  |  |  |  |  | 
2 | Cc1ncsc1-c1ccc([C@H](C)NC(=O)[C@@H]2C[C@@H](O)CN2C(=O)[C@@H](NC(=O)CCCCCC(=O)N2C[C@H]3CN(CC[C@H](CSc4ccccc4)Nc4ccc(S(=O)(=O)NC(=O)c5ccc(N6CCN(CC7=C(c8ccc(Cl)cc8)CCC(C)(C)C7)CC6)cc5)cc4S(=O)(=O)C(F)(F)F)C[C@H]3C2)C(C)(C)C)cc1 [Compound 8, cis-(2S,4R)-1-((2S)-2-(7-(5-((R)-3-((4-(N-(4-(4-((4′-chloro-4,4-dimethyl-3,4,5,6-tetrahydro-[1,1′-biphenyl]-2-yl)methyl)piperazin-1-yl)benzoyl)sulfamoyl)-2-((trifluoromethyl)sulfonyl)phenyl)amino)-4-(phenylthio)butyl)hexahydropyrrolo[3,4-c]pyrrol-2(1H)-yl)-7-oxoheptanamido)-3,3-dimethylbutanoyl)-4-hydroxy-N—((S)-1-(4-(4-methylthiazol-5-yl)phenyl)ethyl)pyrrolidine-2-carboxamide] |  |  |  |  |  |  |  |  |  |  | 8.8 | < 500 |  |  |  |  |  | 
3 | Cc1ncsc1-c1ccc([C@H](C)NC(=O)[C@@H]2C[C@@H](O)CN2C(=O)[C@@H](NC(=O)CCCCCC(=O)N2C[C@H]3C[C@@H]2CN3CC[C@H](CSc2ccccc2)Nc2ccc(S(=O)(=O)NC(=O)c3ccc(N4CCN(CC5=C(c6ccc(Cl)cc6)CCC(C)(C)C5)CC4)cc3)cc2S(=O)(=O)C(F)(F)F)C(C)(C)C)cc1 [Compound 10, (2S,4R)-1-((S)-2-(7-((1R,4R)-5-((R)-3-((4-(N-(4-(4-((4′-chloro-4,4-dimethyl-3,4,5,6-tetrahydro-[1,1′-biphenyl]-2-yl)methyl)piperazin-1-yl)benzoyl)sulfamoyl)-2-((trifluoromethyl)sulfonyl)phenyl)amino)-4-(phenylthio)butyl)-2,5-diazabicyclo[2.2.1]heptan-2-yl)-7-oxoheptanamido)-3,3-dimethylbutanoyl)-4-hydroxy-N—((S)-1-(4-(4-methylthiazol-5-yl)phenyl)ethyl)pyrrolidine-2-carboxamide] |  |  |  |  |  |  |  |  |  |  | 3.7 | < 500 |  |  |  |  |  | 
4 | Cc1ncsc1-c1ccc([C@H](C)NC(=O)[C@@H]2C[C@@H](O)CN2C(=O)[C@@H](NC(=O)CCCCCC(=O)N2C[C@H]3CN(CC[C@H](CSc4ccccc4)Nc4ccc(S(=O)(=O)NC(=O)c5ccc(N6CCN(CC7=C(c8ccc(Cl)cc8F)CCC(C)(C)C7)CC6)cc5)cc4S(=O)(=O)C(F)(F)F)C[C@H]3C2)C(C)(C)C)cc1 (relative stereo) [Compound 14, cis-(2S,4R)-1-((S)-2-(7-(5-((R)-3-((4-(N-(4-(4-((4′-chloro-2′-fluoro-4,4-dimethyl-3,4,5,6-tetrahydro-[1,1′-biphenyl]-2-yl)methyl)piperazin-1-yl)benzoyl)sulfamoyl)-2-((trifluoromethyl)sulfonyl)phenyl)amino)-4-(phenylthio)butyl)hexahydropyrrolo[3,4-c]pyrrol-2(1H)-yl)-7-oxoheptanamido)-3,3-dimethylbutanoyl)-4-hydroxy-N—((S)-1-(4-(4-methylthiazol-5-yl)phenyl)ethyl) pyrrolidine-2-carboxamide] |  |  |  |  |  |  |  |  |  |  | 8.1 |  | < 500 |  |  |  |  | 
5 | Cc1ncsc1-c1ccc([C@H](C)NC(=O)[C@@H]2C[C@@H](O)CN2C(=O)[C@@H](NC(=O)CCCCCC(=O)N2CCN(CC[C@H](CSc3ccccc3)Nc3ccc(S(=O)(=O)NC(=O)c4ccc(N5CCN(CC6=C(c7ccc(Cl)cc7)CCCCC6)CC5)cc4)cc3S(=O)(=O)C(F)(F)F)CC2)C(C)(C)C)cc1 [Compound 6, (2S,4R)-1-((S)-2-(7-(4-((R)-3-((4-(N-(4-(4-((2-(4-chlorophenyl)cyclohept-1-en-1-yl)methyl)piperazin-1-yl)benzoyl)sulfamoyl)-2-((trifluoromethyl)sulfonyl)phenyl)amino)-4-(phenylthio)butyl)piperazin-1-yl)-7-oxoheptanamido)-3,3-dimethylbutanoyl)-4-hydroxy-N—((S)-1-(4-(4-methylthiazol-5-yl)phenyl)ethyl)pyrrolidine-2-carboxamide] | — | ↓60% | ↓61% | ↓84% | ↓53% | ↓16% | ↓56% | ↓51% | ↓71% | ↓17% | 8.4 |  |  | less platelet toxicity | less platelet toxicity | 54600 ± 5910 | 9.83 ± 2.2 | < 0.0001
